From patent publication US20240252488A1 (KOREA RESEARCH INSTITUTE OF CHEMICAL TECHNOLOGY, priority 2020, published 2024)

Tests used:
FADD−/− Jurkat cells = assay: Necroptosis inhibition assay, TNF-α-induced necroptosis (CellTiter-Glo 2.0); assay type: cell-based, human; settings: TNF-α 15 ng/mL; for Necroptosis inhibition assay (Rescue %) 1 μM: compound 1 μM; for Necroptosis inhibition assay (Rescue %) 10 μM: compound 10 μM
Summary of the method: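 Necroptosis was triggered by TNF-α at 15 ng/mL final following 30 minutes of compound exposure (0.1, 1 or 10 μM final). Incubation ran 20 to 24 hours at 37° C under 5% CO2; cell ATP was then quantified by luminescence.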

MLKL [1] = target: T1, MLKL (Homo sapiens, UniProt Q8NB16); assay: MLKL degradation assay in HepG2 cell line (western blot); assay type: cell-based; design: endogenous in cells; host or cells: HepG2 or HaCaT; settings: cell line not given; for Degradation assay (Degradation %) 1 μM: compound 1 μM; for Degradation assay (Degradation %) 10 μM: compound 10 μM
T1 sequence (Q8NB16 1-471): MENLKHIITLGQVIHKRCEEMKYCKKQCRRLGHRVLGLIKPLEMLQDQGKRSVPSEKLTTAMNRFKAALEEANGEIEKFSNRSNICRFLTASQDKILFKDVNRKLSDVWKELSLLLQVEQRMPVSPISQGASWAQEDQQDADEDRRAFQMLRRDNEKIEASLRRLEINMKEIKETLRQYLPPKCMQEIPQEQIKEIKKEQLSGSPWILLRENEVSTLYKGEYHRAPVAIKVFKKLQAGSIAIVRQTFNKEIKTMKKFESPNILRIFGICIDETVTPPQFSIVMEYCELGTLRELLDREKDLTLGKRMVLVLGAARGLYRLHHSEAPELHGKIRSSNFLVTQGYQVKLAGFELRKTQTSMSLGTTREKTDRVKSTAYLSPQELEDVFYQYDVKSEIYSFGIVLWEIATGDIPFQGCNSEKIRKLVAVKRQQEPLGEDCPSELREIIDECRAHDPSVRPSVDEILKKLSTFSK
Summary of the method: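 After treating HepG2 with test compounds (final 1 μM or 10 μM) for 20-24 h, we lysed cells, equalized protein by BCA and probed MLKL by overnight primary antibody at 4 °C followed by chemiluminescent detection.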

MLKL [2] = target: T1, MLKL; assay: Measurement of binding affinity with MLKL receptor (competitive binding assay, Kd); design: made in house; host or cells: HEK 293 cell line (T7 phage in E. coli BL21-derived host is also described)
Summary of the method: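 MLKL was produced in HEK 293 cells and tagged with DNA for detection. Liganded beads were blocked with excess biotin and washed to cut non-specific binding, then compounds (111× DMSO stocks, 0.9% DMSO in assay) competed for binding. Eluate kinase was measured by qPCR for Kd.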

Compound | Necroptosis inhibition assay (Rescue %) 1 μM (FADD−/− Jurkat cells) [%] | Necroptosis inhibition assay (Rescue %) 10 μM (FADD−/− Jurkat cells) [%] | Degradation assay (Degradation %) 1 μM (MLKL [1]) [%] | Degradation assay (Degradation %) 10 μM (MLKL [1]) [%] | Kd (MLKL [2]) [nM] | Necroptosis inhibition assay (Rescue %) 1 μM (FADD−/− Jurkat cells; FADD−/− Jurkat cells) [%] | Necroptosis inhibition assay (Rescue %) 10 μM (FADD−/− Jurkat cells; FADD−/− Jurkat cells) [%]
Nc1ncc(-c2cnn(C3CN(CC4CCN(C(=O)CNc5cccc6c5C(=O)N(C5CCC(=O)NC5=O)C6=O)CC4)C3)c2)nc1C(=O)OC(C(=O)Nc1ccc(F)cc1)c1ccccc1 (stereo not shown) [TDH-296, 2-((4-fluorophenyl)amino)-2-oxo-1-phenylethyl 3-amino-6-(1-(1-((1-((2-(2,6-dioxopiperidin-3-yl)-1,3-dioxoisoindolin-4-yl)glycyl)piperidin-4-yl)methyl)azetidin-3-yl)-1H-pyrazol-4-yl)pyrazine-2-carboxylate] | 25.58 | 26.91 | 75.78 | 62.01 | 22 | – | –
Nc1ncc(-c2cnn(C3CCN(C[C@H]4CC[C@H](CNC(=O)Cc5cccc(NC6=CC(=O)N(C7CCC(=O)NC7=O)C6=O)c5)CC4)CC3)c2)nc1C(=O)O[C@@H](C(=O)Nc1ccc(F)cc1)c1ccccc1 (stereo partly drawn) [TDH-498, (R)-2-((4-fluorophenyl)amino)-2-oxo-1-phenylethyl 3-amino-6-(1-(1-(((1r,4r)-4-((2-(3-((1-(2,6-dioxopiperidin-3-yl)-2,5-dioxo-2,5-dihydro-1H-pyrrol-3-yl)amino)phenyl)acetamido)methyl)cyclohexyl)methyl)piperidin-4-yl)-1H-pyrazol-4-yl)pyrazine-2-carboxylate] | – | – | 86.68 | 89.27 | 3.7 | 23.9 | 16.6
Nc1ncc(-c2cnn(C3CCN(CC4CCN(CC5CCN(C(=O)c6ccc7c(c6)CN(C6CCC(=O)NC6=O)C7=O)CC5)CC4)CC3)c2)nc1C(=O)O[C@@H](C(=O)Nc1ccc(F)cc1)c1ccccc1 (stereo partly drawn) [TDH-550, (R)-2-((4-fluorophenyl)amino)-2-oxo-1-phenylethyl 3-amino-6-(1-(1-((1-((1-(2-(2,6-dioxopiperidin-3-yl)-1-oxoisoindoline-5-carbonyl)piperidin-4-yl)methyl)piperidin-4-yl)methyl)piperidin-4-yl)-1H-pyrazol-4-yl)pyrazine-2-carboxylate] | – | – | 88.92 | 86.09 | 0.53 | 47.98 | 20.62
Nc1ncc(-c2cnn(C3CCN(CCOCCOCCOCCNc4ccc5c(c4)C(=O)N(C4CCC(=O)NC4=O)C5=O)CC3)c2)nc1C(=O)O[C@@H](C(=O)Nc1ccc(F)cc1)c1ccccc1 (stereo partly drawn) [TDH-154, (R)-2-((4-fluorophenyl)amino)-2-oxo-1-phenylethyl 3-amino-6-(1-(1-(2-(2-(2-(2-((2-(2,6-dioxopiperidin-3-yl)-1,3-dioxoisoindolin-5-yl)amino)ethoxy)ethoxy)ethoxy)ethyl)piperidin-4-yl)-1H-pyrazol-4-yl)pyrazine-2-carboxylate] | 37.01 | 23.23 | 25.56 | 28.19 | 3.8 | – | –
Nc1ncc(-c2cnn(C3CCN(C(=O)C4CCN(C(=O)CC5CCN(c6ccc7c(c6)C(=O)N(C6CCC(=O)NC6=O)C7=O)CC5)CC4)CC3)c2)nc1C(=O)O[C@@H](C(=O)Nc1ccc(F)cc1)c1ccccc1 (stereo partly drawn) [TDH-375, (R)-2-((4-fluorophenyl)amino)-2-oxo-1-phenylethyl 3-amino-6-(1-(1-(1-(2-(1-(2-(2,6-dioxopiperidin-3-yl)-1,3-dioxoisoindolin-5-yl)piperidin-4-yl)acetyl)piperidine-4-carbonyl)piperidin-4-yl)-1H-pyrazol-4-yl)pyrazine-2-carboxylate] | 30.67 | 20.44 | 93.86 | 86.43 | 2.3 | – | –
Nc1ncc(-c2cnn(C3CCN(C(=O)CCC4CCN(C(=O)C5CCN(c6cccc7nnn(C8CCC(=O)NC8=O)c(=O)c67)CC5)CC4)CC3)c2)nc1C(=O)O[C@@H](C(=O)Nc1ccc(F)cc1)c1ccccc1 (stereo partly drawn) [TDH-435, (R)-2-((4-fluorophenyl)amino)-2-oxo-1-phenylethyl 3-amino-6-(1-(1-(3-(1-(1-(3-(2,6-dioxopiperidin-3-yl)-4-oxo-3,4-dihydrobenzo[d][1,2,3]triazin-5-yl)piperidine-4-carbonyl)piperidin-4-yl)propanoyl)piperidin-4-yl)-1H-pyrazol-4-yl)pyrazine-2-carboxylate] | – | – | 79.73 | 64.92 | 1.8 | 18.26 | 11.49
Nc1ncc(-c2cnn(C3CCN(CCOC4CCN(C(=O)C5CCN(c6ccc7c(c6)C(=O)N(C6CCC(=O)NC6=O)C7=O)CC5)CC4)CC3)c2)nc1C(=O)OC(C(=O)Nc1ccc(F)cc1)c1ccccc1 (stereo not shown) [TDH-248, 2-((4-fluorophenyl)amino)-2-oxo-1-phenylethyl 3-amino-6-(1-(1-(2-((1-(1-(2-(2,6-dioxopiperidin-3-yl)-1,3-dioxoisoindolin-5-yl)piperidine-4-carbonyl)piperidin-4-yl)oxy)ethyl)piperidin-4-yl)-1H-pyrazol-4-yl)pyrazine-2-carboxylate] | 72.38 | 51.46 | 47.44 | 14.59 | 8.5 | – | –
Nc1ncc(-c2cnn(C3CCN(CCC4CCN(C(=O)CC5CCN(c6ccc7c(c6)C(=O)N(C6CCC(=O)NC6=O)C7=O)CC5)CC4)CC3)c2)nc1C(=O)O[C@@H](C(=O)Nc1ccc(F)cc1)c1ccccc1 (stereo partly drawn) [TDH-367, (R)-2-((4-fluorophenyl)amino)-2-oxo-1-phenylethyl 3-amino-6-(1-(1-(2-(1-(2-(1-(2-(2,6-dioxopiperidin-3-yl)-1,3-dioxoisoindolin-5-yl)piperidin-4-yl)acetyl)piperidin-4-yl)ethyl)piperidin-4-yl)-1H-pyrazol-4-yl)pyrazine-2-carboxylate] | 36.86 | 21.34 | 84.28 | 80.64 | 0.82 | – | –
Nc1ncc(-c2cnn(C3CCN(CCC4CCN(C(=O)C5CCN(C6=CC(=O)N(C7CCC(=O)NC7=O)C6=O)CC5)CC4)CC3)c2)nc1C(=O)O[C@@H](C(=O)Nc1ccc(F)cc1)c1ccccc1 (stereo partly drawn) [TDH-524, (R)-2-((4-fluorophenyl)amino)-2-oxo-1-phenylethyl 3-amino-6-(1-(1-(2-(1-(1-(1-(2,6-dioxopiperidin-3-yl)-2,5-dioxo-2,5-dihydro-1H-pyrrol-3-yl)piperidine-4-carbonyl)piperidin-4-yl)ethyl)piperidin-4-yl)-1H-pyrazol-4-yl)pyrazine-2-carboxylate] | – | – | 89.35 | 83.06 | 0.99 | 48.61 | 15.69
Nc1ncc(-c2cnn(C3CCN(CCCCCCNC(=O)C4CN(c5cccc6c5C(=O)N(C5CCC(=O)NC5=O)C6=O)C4)CC3)c2)nc1C(=O)O[C@@H](C(=O)Nc1ccc(F)cc1)c1ccccc1 (stereo partly drawn) [TDH-113, (R)-2-((4-fluorophenyl)amino)-2-oxo-1-phenylethyl 3-amino-6-(1-(1-(6-(1-(2-(2,6-dioxopiperidin-3-yl)-1,3-dioxoisoindolin-4-yl)azetidine-3-carboxamido)hexyl)piperidin-4-yl)-1H-pyrazol-4-yl)pyrazine-2-carboxylate] | 24.96 | 5.16 | 24.54 | 19.24 | 2.3 | – | –
Nc1ncc(-c2cnn(C3CCN(CCC4CCN(C(=O)COc5ccc6nnn(C7CCC(=O)NC7=O)c(=O)c6c5)CC4)CC3)c2)nc1C(=O)OC(C(=O)Nc1ccc(F)cc1)c1ccccc1 (stereo not shown) [TDH-293, 2-((4-fluorophenyl)amino)-2-oxo-1-phenylethyl 3-amino-6-(1-(1-(2-(1-(2-((3-(2,6-dioxopiperidin-3-yl)-4-oxo-3,4-dihydrobenzo[d][1,2,3]triazin-6-yl)oxy)acetyl)piperidin-4-yl)ethyl)piperidin-4-yl)-1H-pyrazol-4-yl)pyrazine-2-carboxylate] | 108.66 | 87.1 | 76.09 | 71.04 | 2.3 | – | –
